Measurements published in article PMC4657098, “A Review of the Updated Pharmacophore for the Alpha 5 GABA(A) Benzodiazepine Receptor Model” (International Journal of Medicinal Chemistry, 2015).
Like-named read-outs stand apart in the source and are kept apart here.

Assays:
[1] = target: T1, α2β3γ2 GABAA/BzR (Homo sapiens, UniProt P18507+P47869); parameters: expressed in transfected cells; host or cells: LTK cells (given for XLi-093 only); details: read-out: Affinity Ki α2; cited from earlier work
[2] = target: T2, α1β3γ2 GABAA/BzR (Homo sapiens, UniProt P14867+P18507); parameters: expressed in transfected cells; host or cells: LTK cells (given for XLi-093 only); details: read-out: Affinity Ki α1; cited from earlier work
[3] = target: T3, α6β3γ2 GABAA/BzR (Homo sapiens, UniProt P18507+Q16445); parameters: expressed in transfected cells; host or cells: LTK cells (given for XLi-093 only); details: read-out: Affinity Ki α6; cited from earlier work
[4] = target: T4, α5β3γ2 GABAA/BzR (Homo sapiens, UniProt P18507+P31644); parameters: expressed in transfected cells; host or cells: LTK cells (given for XLi-093 only); details: read-out: Affinity Ki α5; cited from earlier work
[5] = target: T5, α3β3γ2 GABAA/BzR (Homo sapiens, UniProt P18507+P34903); parameters: expressed in transfected cells; host or cells: LTK cells (given for XLi-093 only); details: read-out: Affinity Ki α3; cited from earlier work
[6] = system: Bz BS of GABA(A) receptors; details: cited from earlier work
[7] = target: T1, α2β3γ2 GABAA/BzR; assay: Competition binding to HEK cell membranes, α2β3γ2; parameters: expressed in transfected cells
[8] = target: T2, α1β3γ2 GABAA/BzR; assay: Competition binding to HEK cell membranes, α1β3γ2; parameters: expressed in transfected cells
[9] = target: T3, α6β3γ2 GABAA/BzR; assay: Competition binding to HEK cell membranes, α6β3γ2; parameters: expressed in transfected cells
[10] = target: T4, α5β3γ2 GABAA/BzR; assay: Competition binding to HEK cell membranes, α5β3γ2; parameters: expressed in transfected cells
[11] = target: T5, α3β3γ2 GABAA/BzR; assay: Competition binding to HEK cell membranes, α3β3γ2; parameters: expressed in transfected cells
[12] = target: T6, α4β3γ2 GABAA/BzR (Homo sapiens, UniProt P18507+P48169); assay: biochemical; format: binding
T6 construct: expressed in transfected cells; host or cells: LTK cells (given for XLi-093 only)

For CC(C)(C)OC(=O)c1cc2c(cn1)[nH]c1ccc(-c3cccs3)cc12 [35(WYS12)], the Ki [1] is listed as 166 nM, the Ki [2] is listed as 37 nM and the Ki [3] is listed as 5000 nM. The Ki [4] was 2860 nM and the Ki [5] was 314 nM.
For COC(=O)c1cc2c(cn1)[nH]c1ccccc12 [-CCM, methyl beta-carboline-3-carboxylate], the modulation ([6]; Supplement Table 1) is listed as “inverse agonist”.
For Cc1nnc2ccc(-c3cccc(C(F)(F)F)c3)nn12 [CL-218,872], the modulation ([6]; Supplement Table 1) is listed as “partial agonist”.
For CCCC(=O)c1cc2c(cn1)[nH]c1ccc(F)cc12 [CM-A57], the Ki [1] is listed as 27 nM, the Ki ([7]; read-out: Ki α2) is listed as 27 nM and the Ki ([8]; read-out: Ki α1) is listed as 3.7 nM. For the same compound, the Ki ([9]; read-out: Ki α6) was 1000 nM, the Ki [2] was 3.7 nM and the Ki [3] was greater than 2500 nM. For the same compound, the Ki ([10]; read-out: Ki α5) was 254 nM, the Ki ([11]; read-out: Ki α3) was 40 nM and the Ki [4] was 254 nM. The Ki [5] was 40 nM.
In the case of CC(C)(C)OC(=O)c1cc2c(cn1)[nH]c1ccc(C(C)(C)C)cc12 [CM-A82a], the Ki [1] is given as 8.93 nM, the Ki ([7]; Ki α2) is given as 8.93 nM and the Ki ([7]; read-out: Ki α2) is given as 8.93 nM. It also gave a Ki ([8]; Ki α1) of 2.78 nM, a Ki ([8]; read-out: Ki α1) of 2.78 nM and a Ki ([9]; Ki α6) of 1000 nM. For the same compound, the Ki [2] was 2.78 nM, the Ki ([10]; Ki α5) was 7.49 nM and the Ki ([10]; read-out: Ki α5) was 7.49 nM. It also gave a Ki [12] of 1000 nM, a Ki ([11]; Ki α3) of 24.5 nM and a Ki ([11]; read-out: Ki α3) of 24.5 nM. For the same compound, the Ki [4] was 7.49 nM and the Ki [5] was 24.5 nM.
For CC(C)(C)OC(=O)c1cc2c(cn1)[nH]c1ccc(F)cc12 [CM-A87], the Ki [1] is given as 4.54 nM, the Ki ([7]; Ki α2) is given as 4.54 nM and the Ki ([7]; read-out: Ki α2) is given as 4.54 nM. The Ki ([8]; Ki α1) was 1.62 nM, the Ki ([8]; read-out: Ki α1) was 1.62 nM and the Ki ([9]; Ki α6) was 1000 nM. For the same compound, the Ki [2] was 1.62 nM, the Ki ([10]; Ki α5) was 4.61 nM and the Ki ([10]; read-out: Ki α5) was 4.61 nM. It also gave a Ki [12] of 1000 nM, a Ki ([11]; Ki α3) of 14.7 nM and a Ki ([11]; read-out: Ki α3) of 14.7 nM. The Ki [4] was 4.61 nM and the Ki [5] was 14.7 nM.
For COc1ccc2c(c1)C(=O)N1CCC[C@H]1c1c(C(=O)OCc3ccccc3)ncn1-2 [CM-E10], the Ki ([7]; read-out: Ki α2) was 26 nM, the Ki ([8]; read-out: Ki α1) was 23 nM and the Ki ([9]; read-out: Ki α6) was 96 nM. The Ki ([10]; read-out: Ki α5) was 0.51 nM, the Ki ([12]; read-out: Ki α4) was 215 nM and the Ki ([11]; read-out: Ki α3) was 14 nM.
Compound COc1ccc2c(c1)C(=O)N1CCCC1c1c(C(=O)OCC(C)C)ncn1-2 (stereo not shown) [CM-E11] has a Ki ([7]; read-out: Ki α2) of 308 nM, a Ki ([8]; read-out: Ki α1) of 333 nM and a Ki ([9]; read-out: Ki α6) of 750 nM. The Ki ([10]; read-out: Ki α5) was 14 nM, the Ki ([12]; read-out: Ki α4) was 394 nM and the Ki ([11]; read-out: Ki α3) was 161 nM.
For CN1C(=O)CN=C(c2ccccc2F)c2cc([N+](=O)[O-])ccc21 [FLUNITRAZEPAM, flunitrazepam], the modulation [6] is given as “agonist”.
In the case of O=C(OCC(F)(F)F)c1cc2c(cn1)[nH]c1ccccc12 [MMB-II-74], the Ki ([7]; read-out: Ki α2) is reported as 24.5 nM, the Ki ([8]; read-out: Ki α1) is reported as 3 nM and the Ki ([9]; read-out: Ki α6) is reported as 1000 nM. The Ki ([10]; read-out: Ki α5) was 126 nM, the Ki ([12]; read-out: Ki α4) was 500 nM and the Ki ([11]; read-out: Ki α3) was 41.7 nM.
Work on CCC(OC(=O)c1ncn2c1C1CCCN1C(=O)c1cc(Br)ccc1-2)C(F)(F)F (stereo not shown) [MMB-II-87] yielded a Ki ([7]; read-out: Ki α2) of 333 nM, a Ki ([8]; read-out: Ki α1) of 200 nM and a Ki ([9]; read-out: Ki α6) of 333 nM. The Ki ([10]; read-out: Ki α5) was 5.4 nM, the Ki ([12]; read-out: Ki α4) was 109 nM and the Ki ([11]; read-out: Ki α3) was 107 nM.
In the case of CC(C)OC(=O)c1ncn2c1[C@@H]1CCCN1C(=O)c1cc(Br)ccc1-2 [MMB-II-90], the Ki ([7]; read-out: Ki α2) is reported as 24 nM, the Ki ([8]; read-out: Ki α1) is reported as 20 nM and the Ki ([9]; read-out: Ki α6) is reported as 36 nM. The Ki ([10]; read-out: Ki α5) was 0.25 nM, the Ki ([12]; read-out: Ki α4) was 9 nM and the Ki ([11]; read-out: Ki α3) was 5.7 nM.
CC(OC(=O)c1ncn2c1C1CCCN1C(=O)c1ccccc1-2)C(F)(F)F (stereo not shown) [MMB-III-14] showed a Ki ([7]; read-out: Ki α2) of 13 nM, a Ki ([8]; read-out: Ki α1) of 13 nM and a Ki ([9]; read-out: Ki α6) of 333 nM. The Ki ([10]; read-out: Ki α5) was 1.1 nM, the Ki ([12]; read-out: Ki α4) was 333 nM and the Ki ([11]; read-out: Ki α3) was 6.9 nM.
Work on CC(C)OC(=O)c1ncn2c1[C@@H]1CCCN1C(=O)c1ccccc1-2 [MMB-III-016] yielded a Ki ([7]; read-out: Ki α2) of 1.97 nM, a Ki ([8]; read-out: Ki α1) of 3 nM and a Ki ([9]; read-out: Ki α6) of 211 nM. For the same compound, the Ki ([10]; read-out: Ki α5) was 0.26 nM, the Ki ([12]; read-out: Ki α4) was 1070 nM and the Ki ([11]; read-out: Ki α3) was 2 nM.
O=C(OC(C(F)(F)F)C(F)(F)F)c1ncn2c1C1CCCN1C(=O)c1ccccc1-2 (stereo not shown) [MMB-III-018] showed a Ki ([7]; read-out: Ki α2) of 140 nM, a Ki ([8]; read-out: Ki α1) of 117 nM and a Ki ([9]; read-out: Ki α6) of 976 nM. For the same compound, the Ki ([10]; read-out: Ki α5) was 14 nM, the Ki ([12]; read-out: Ki α4) was 3500 nM and the Ki ([11]; read-out: Ki α3) was 78 nM.
In the case of C#Cc1ccc2c(c1)C(c1ccccc1F)=NCC(=O)N2C [OMB-18], the Ki ([7]; read-out: Ki α2) is reported as 1.2 nM, the Ki ([8]; read-out: Ki α1) is reported as 3.9 nM and the Ki ([9]; read-out: Ki α6) is reported as 5 nM. It also gave a Ki ([10]; read-out: Ki α5) of 0.8 nM, a Ki ([12]; read-out: Ki α4) of 1730 nM and a Ki ([11]; read-out: Ki α3) of 3.4 nM.
